These results are taken from PubChem BioAssay (NCI).

Several values for one entry are separate records, joined by “and”; a condition that tells them apart may be missing. Equal entries are not always repeated.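 Tested at 5 concentrations; 48 h exposure; 96-well plates; endpoints linearly interpolated, else capped at highest concentration. The concentration for 50% growth inhibition is given as GI50. The concentration for full growth arrest is given as TGI.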 Some results are limits rather than exact numbers.

Test systems include SR leukemia; MCF7 breast; M14 melanoma; K-562 leukemia; SN12C renal; BT-549 breast; DU-145 prostate; SK-MEL-28 melanoma; EKVX NSCLC; HOP-62 NSCLC.
Test in all cases: growth of human tumour cells (NCI), 48 h

In the case of `COC(=O)c1cc(-c2ccc(S(C)(=O)=O)cc2)[nH]c1N/N=C/c1c(Cl)cccc1Cl`, the TGI in the experiment on SR leukemia is more than 100 µM; in the experiment on MCF7 breast, 20.8 µM; with M14 melanoma, 9.77 µM; with K-562 leukemia, more than 100 µM; with SN12C renal it was more than 100 µM; with BT-549 breast it was 62 µM. Further, the TGI with DU-145 prostate was 5.53 µM; in the experiment on SK-MEL-28 melanoma, more than 58.2 µM; in the experiment with EKVX NSCLC it was more than 76.1 µM; with HOP-62 NSCLC, 32.9 µM. Besides, the GI50 was 0.329 µM in the experiment with MCF7 breast; 0.624 µM with M14 melanoma; 1.87 µM in the experiment on K-562 leukemia; 0.699 µM in the experiment with SN12C renal; 0.915 µM with BT-549 breast; 0.732 µM in the experiment with DU-145 prostate. The GI50 in the experiment with SK-MEL-28 melanoma is 0.893 µM; in the experiment with EKVX NSCLC it was 1.11 µM; with HOP-62 NSCLC it was 0.787 µM.
Take `CCN1C(=O)N(CC)C2C1N=C(SC)N2/N=C/C=C/c1ccccc1OC` (stereo not drawn): the GI50 with SR leukemia is 0.358 µM; with MCF7 breast, 0.421 µM; in the experiment on M14 melanoma it was 0.33 µM; in the experiment with K-562 leukemia it was 0.361 µM; with SN12C renal, 0.512 µM; in the experiment on BT-549 breast, 0.479 µM. The GI50 in the experiment on DU-145 prostate was 0.428 µM; in the experiment with SK-MEL-28 melanoma it was more than 32.1 µM; in the experiment on EKVX NSCLC, 0.581 µM; in the experiment on HOP-62 NSCLC it was 0.55 µM. Further, the TGI in the experiment with SR leukemia is 13.2 µM; with MCF7 breast, more than 39.4 µM; in the experiment on M14 melanoma, more than 37.4 µM; in the experiment with K-562 leukemia it was more than 42.8 µM; with SN12C renal it was more than 43.5 µM; in the experiment on BT-549 breast it was 19.6 µM. The TGI in the experiment on DU-145 prostate is more than 45.3 µM; with SK-MEL-28 melanoma it was more than 50.3 µM; with EKVX NSCLC it was more than 56.6 µM; in the experiment with HOP-62 NSCLC it was more than 45 µM.
With `C[C@]12CCC(=O)C[C@@H]1CC[C@@H]1[C@@H]2CC[C@]2(C)[C@@H](OC(=O)N(CCCl)N=O)CC[C@@H]12`, the TGI is more than 37.7 µM in the experiment with SR leukemia; more than 45.6 µM with MCF7 breast; 22.3 µM in the experiment with M14 melanoma; more than 43.4 µM in the experiment on K-562 leukemia; 17.9 µM in the experiment with SN12C renal; 21.7 µM in the experiment on BT-549 breast. Besides, the TGI was 3.95 µM with DU-145 prostate, 23 µM in the experiment on SK-MEL-28 melanoma, more than 41.1 µM with EKVX NSCLC and 14.1 µM in the experiment on HOP-62 NSCLC. Besides, the GI50 was 4.71 µM in the experiment with MCF7 breast; 0.752 µM in the experiment with M14 melanoma; 2.69 µM with K-562 leukemia; 0.734 µM in the experiment on SN12C renal; 4.87 µM in the experiment on BT-549 breast; 0.405 µM in the experiment with DU-145 prostate. Moreover, the GI50 in the experiment on SK-MEL-28 melanoma is 6.43 µM; in the experiment on EKVX NSCLC, 4.88 µM; in the experiment on HOP-62 NSCLC it was 1.75 µM.
As to `CNC(=O)c1cc(Oc2ccc(NC(=O)Nc3cc(C(C)(C)C)nn3-c3ccc4ncccc4c3)c(F)c2)ccn1`, the GI50 with SR leukemia was 0.633 µM and 0.497 µM; in the experiment on MCF7 breast it was 1.15 µM and 1.05 µM; in the experiment on M14 melanoma, 0.37 µM and 0.395 µM; in the experiment with K-562 leukemia, 0.0151 µM and 0.0275 µM; with SN12C renal it was 0.646 µM and 0.484 µM; with BT-549 breast, 1.08 µM and 2.27 µM. Further, the GI50 with DU-145 prostate was 2.1 µM and 1.8 µM; in the experiment on SK-MEL-28 melanoma it was 0.264 µM and 0.297 µM; with EKVX NSCLC, 2.72 µM; in the experiment with HOP-62 NSCLC it was 2.24 µM and 2.2 µM. For the same compound, the TGI in the experiment with SR leukemia is 3.91 µM and 3.85 µM; with MCF7 breast, 9.13 µM and > 53 µM; with M14 melanoma, 2.49 µM and 2 µM; in the experiment on K-562 leukemia it was more than 100 µM; in the experiment with SN12C renal, 5.74 µM and 4.68 µM; with BT-549 breast, 4.58 µM and 5.65 µM. Moreover, the TGI in the experiment with DU-145 prostate is 6.23 µM and 5.62 µM; with SK-MEL-28 melanoma it was 2.62 µM and 2.8 µM; in the experiment on EKVX NSCLC, 8.61 µM; with HOP-62 NSCLC, 7.56 µM and 7.34 µM.
With `CC1(C)C(=O)/C=C\C(=O)C(C)(C)C(=O)/C=C\C(=O)C(C)(C)C2=CC=C(O2)C(C)(C)C(=O)/C=C\C1=O`, the TGI is 4.05 µM in the experiment with SR leukemia; 39.8 µM in the experiment with MCF7 breast; 5.63 µM with M14 melanoma; more than 46.9 µM with K-562 leukemia; 14.1 µM in the experiment on SN12C renal; 24.2 µM in the experiment on BT-549 breast. The TGI was found to be 32.1 µM in the experiment on DU-145 prostate, 10 µM in the experiment on SK-MEL-28 melanoma, 11.6 µM in the experiment with EKVX NSCLC and 44.7 µM with HOP-62 NSCLC.
As for `O=C1Cc2cc(CCN3CCNCC3)c(Cl)cc2N1`, the GI50 with SR leukemia is 6.2 µM; in the experiment on MCF7 breast, 3.65 µM; in the experiment with M14 melanoma, 3.02 µM; in the experiment with K-562 leukemia, 6.24 µM; in the experiment with SN12C renal, 6 µM; in the experiment on BT-549 breast it was 8.18 µM. The GI50 in the experiment with DU-145 prostate is 19.9 µM; in the experiment on SK-MEL-28 melanoma, 37 µM; in the experiment with EKVX NSCLC, 0.358 µM; with HOP-62 NSCLC, 19.3 µM. The TGI with SR leukemia was more than 100 µM; in the experiment on MCF7 breast, more than 100 µM; in the experiment on M14 melanoma it was 26.5 µM; in the experiment on K-562 leukemia it was more than 100 µM; with SN12C renal, more than 100 µM; in the experiment with BT-549 breast, more than 100 µM. The TGI with DU-145 prostate, with SK-MEL-28 melanoma, in the experiment with EKVX NSCLC and with HOP-62 NSCLC was more than 100 µM each time.
In the case of `N=C(CC(=O)Nc1ccccn1)c1ccccc1`, the TGI in the experiment on SR leukemia, with MCF7 breast, in the experiment with M14 melanoma, in the experiment with K-562 leukemia, in the experiment on SN12C renal and with BT-549 breast was more than 100 µM each time. For the same compound, the TGI in the experiment on DU-145 prostate, with SK-MEL-28 melanoma, in the experiment with EKVX NSCLC and in the experiment on HOP-62 NSCLC was more than 100 µM each time.
